According to patent US9403916B2, “Polysaccharide-and polypeptide-based block copolymers, vesicles constituted by these copolymers and use thereof” (priority 2008, dated 2016):
pIC50: −log10 of the molar value.

Tests used:
[1] = tested on: cells of rat glioma C6; assay: Cellular viability (toxicity) MTT test; assay type: cell-based; conditions: 48 h, read-out: IC50 (concentration for which half of the cells remain viable)
Procedure: Experiments of toxicity and release in vitro were performed using vesicles based on hyaluronic acid-block-poly(γ-benzyl L-glutamate) diblock copolymer prepared in Example 6, containing 11% of doxorubicin. The in-vitro experiments were performed on cells of rat glioma C6, in Dulbecco's modified Eagle's medium (DMEM) containing 5% of foetal calf serum. The C6 cells (5×10^5 cells) are placed in bottles of 10 cm diameter and are grown in 10 ml of culture medium containing penicillin (10000 μg/mL), streptomycin (10000 μg/mL) and amphotericin B (25 μg/mL) [Invitrogen Corporation] in an incubator at 37° C. in a controlled atmosphere with 5% CO2. For the tests of cellular viability (or toxicity), C6 cells were incubated in a 24-well plate (15×10^4 cells per well), for 24 h. Viability was determined by a conventional test with tetrazolium salt MTT (3-(4,5-dimethylthiazol-2-yl)-2,5-diphenyl tetrazolium bromide). The tetrazolium that it contains is reduced to formazan by the mitochondrial succinate dehydrogenase of the active living cells. The colour of the medium then changes from yellow to purplish-blue. The intensity of this coloration is proportional to the number of living cells present during the test. Analysis is performed by spectrophotometry (U-2800A, HITACHI), measuring the absorbance at 570 nm. […]

[2] = tested on: DMBA-induced tumour in female Sprague-Dawley rats; assay: Antitumour efficacy in DMBA-induced tumour, tumour regression and survival; assay type: in vivo; conditions: rat, single intravenous dose 5 mg/kg doxorubicin
Procedure: Female Sprague-Dawley rats aged 8 weeks (120-140 g) were used in a study of tumour regression.
7,12-dimethylbenz[α]anthracene (DMBA) was administered orally (in soya oil) to the animals in 3 doses of 45 mg/kg at one-week intervals, to generate the tumour.
The treatment with doxorubicin was given 10 weeks after the last dose of DMBA. The width of the tumour (w) and its length (l) were recorded with callipers and the size of the tumour was calculated from the formula (w×l^2/2).
After 10 weeks from tumour induction, the animals with tumours were separated and divided randomly into different treatment groups, then treated with a single dose of 250 μl of doxorubicin by intravenous route at 5 mg/kg, either in the form of free doxorubicin, or in the form of doxorubicin encapsulated in the micellar vesicles of Example 6.
The control group received a single dose of 250 μl of PBS buffer (pH 7.4) by the intravenous route.
The study was terminated […] after treatment.
Observation of the survival of the animals with a tumour, which were treated, was continued until 60 days after treatment.

COc1cccc2c1C(=O)c1c(O)c3c(c(O)c1C2=O)C[C@@](O)(C(=O)CO)C[C@@H]3O[C@H]1C[C@H](N)[C@H](O)[C@H](C)O1 [free doxorubicin, doxorubicin]
pIC50 [1]: 6.08 | tumour growth in comparison with control group treated with PBS [2]: significantly inhibit tumour growth | tumour regression after 15 days of treatment [2]: regression reaches a plateau
